Numbers after ± are expanded uncertainties.
Settings: 101.33 kPa, Liquid; for speed of sound: Sing-around technique in a fixed-path interferometer; for mass density: Vibrating tube method

| speed of sound (298.15 K) | mass density (298.15 K) | speed of sound (303.15 K) | mass density (303.15 K) | speed of sound (308.15 K) | mass density (308.15 K) | speed of sound (313.15 K) | mass density (313.15 K) | speed of sound (318.15 K) | mass density (318.15 K) | speed of sound (323.15 K) | mass density (323.15 K) | Structure (SMILES) |
| --- | --- | --- | --- | --- | --- | --- | --- | --- | --- | --- | --- | --- |
| 1131 ± 1 m/s | 679.91 ± 0.18 kg/m3 | 1109 ± 1 m/s | 675.63 ± 0.19 kg/m3 | 1088 ± 1 m/s | 671.33 ± 0.19 kg/m3 | 1066 ± 1 m/s | 667.01 ± 0.19 kg/m3 | 1045 ± 1 m/s | 662.65 ± 0.19 kg/m3 | 1024 ± 1 m/s | 658.26 ± 0.19 kg/m3 | CCCCCCC [heptane] |
| 1077 ± 2 m/s | 655.21 ± 0.26 kg/m3 | 1054 ± 2 m/s | 650.64 ± 0.26 kg/m3 | 1032 ± 2 m/s | 646.03 ± 0.26 kg/m3 | 1010 ± 2 m/s | 641.37 ± 0.26 kg/m3 | 988 ± 2 m/s | 636.67 ± 0.26 kg/m3 | 965 ± 2 m/s | 631.92 ± 0.26 kg/m3 | CCCCCC [hexane] |

| Structure (SMILES) | speed of sound (298.15 K) | mass density (298.15 K) | speed of sound (303.15 K) | mass density (303.15 K) | speed of sound (308.15 K) | mass density (308.15 K) | speed of sound (313.15 K) | mass density (313.15 K) | speed of sound (318.15 K) | mass density (318.15 K) | speed of sound (323.15 K) | mass density (323.15 K) |
| --- | --- | --- | --- | --- | --- | --- | --- | --- | --- | --- | --- | --- |
| C1CCCCC1 [cyclohexane] | 1254 ± 1 m/s | 773.86 ± 0.14 kg/m3 | 1229 ± 1 m/s | 769.12 ± 0.14 kg/m3 | 1205 ± 1 m/s | 764.35 ± 0.14 kg/m3 | 1181 ± 1 m/s | 759.56 ± 0.14 kg/m3 | 1157 ± 1 m/s | 754.74 ± 0.14 kg/m3 | 1134 ± 1 m/s | 749.88 ± 0.15 kg/m3 |
